Reference: paper PMC5802278, “Molecular and cellular mechanisms of HIF prolyl hydroxylase inhibitors in clinical trials” (Chemical Science, 2017)
Read-outs that look alike come from different tables or passages of the source.

Assays:
JMJD3 (KDM6B) = JMJD3 (KDM6B) (Homo sapiens, UniProt O15054); assay: AlphaScreen histone demethylase assay; format: biochemical
From the text: Protocols for in vitro PHD1–3 MALDI-TOF MS hydroxylation assays[30] and for the AlphaScreen histone demethylase assays[44] were as reported.

[1] = tested on: hypoxia response element (HRE) firefly luciferase reporter in HT1080 cells; assay: HRE luciferase reporter assay; format: cell-based; settings: for EC50: Homo sapiens
Experimental: HT1080 cells were stably transfected with a construct containing a firefly luciferase gene under the control of 5 tandem copies of the sequence: […] (which contains the hypoxia response element (HRE) 3′ to the mouse erythropoietin gene) linked to a ‘minimal’ SV40 promoter.
HT1080P8 cells (25 000–30 000) were seeded into 96-well plates (100 μL per well) overnight to enable cell adhesion. […] The medium was removed and cells washed with PBS. Luciferase signal was measured using Luciferase Assay System kit from Promega (E1500) following the manufacturer's protocol with a FLUOstar Omega Microplate Reader (BMG Labtech).

[2] = tested on: HIF-1α and HIF-2α in Hep3b cells; assay: Immunoblotting of HIF-α stabilization in Hep3b cells; format: cell-based, human
Experimental: We then investigated potential time dependent effects of the inhibitors on HIF-α stabilization in Hep3b cells (Fig. 5A). […]
Cell Culture and Immunoblotting
HeLa and RCC4 cells were cultured in Dulbecco’s Modified Eagle’s Medium (DMEM; Sigma Aldrich D6546-500ML) supplemented with 10% fetal bovine serum (Sigma Aldrich F7524-500ML), 4 mM L-glutamine (Sigma Aldrich G7513- 100ML), 50 U/mL penicillin, and 50 μg/mL streptomycin (Sigma Aldrich P0781-100ML). Cells were seeded to reach 90-100% confluency prior to compound treatment. Cells were exposed to the inhibitor at a final concentration of 1% DMSO for 5-6 hours. For Fe(II) titration in the presence of inhibitors, […]
Cells were harvested in urea/SDS buffer (6.7 M urea, 10 mM Tris-Cl pH 6.8, 10% glycerol, and1% SDS) supplemented with 1mM dithiothreitol following a phosphate-buffered saline (PBS) rinse. Cell extracts were analyzed with SDS-PAGE, electroblotted to polyvinylidene difluoride (PVDF) membrane (Millipore) and probed with the corresponding primary antibody for 1 hour at room temperature or overnight at 4 °C. The secondary antibody specific to primary antibody species conjugated with HRP were applied at room temperature for 1 hour.
Millipore), anti-HIF-1α Hyp564 (D43B5, Cell Signaling), anti-HIF-1α HyN803 (a generous […]
Abcam). Details of antibodies used are given in Tian et al.17 Detection of signal was achieved […]
unless otherwise stated) either with film or ChemiDoc MP (BIO-RAD) imaging system. TM Quantification of the immunobloting signal was performed with Image Lab software from […]

[3] = HT-1080, 16 h, read-out: EC50 HRE luciferase reporter

Chain of JMJD3 (KDM6B) (O15054 whole entry): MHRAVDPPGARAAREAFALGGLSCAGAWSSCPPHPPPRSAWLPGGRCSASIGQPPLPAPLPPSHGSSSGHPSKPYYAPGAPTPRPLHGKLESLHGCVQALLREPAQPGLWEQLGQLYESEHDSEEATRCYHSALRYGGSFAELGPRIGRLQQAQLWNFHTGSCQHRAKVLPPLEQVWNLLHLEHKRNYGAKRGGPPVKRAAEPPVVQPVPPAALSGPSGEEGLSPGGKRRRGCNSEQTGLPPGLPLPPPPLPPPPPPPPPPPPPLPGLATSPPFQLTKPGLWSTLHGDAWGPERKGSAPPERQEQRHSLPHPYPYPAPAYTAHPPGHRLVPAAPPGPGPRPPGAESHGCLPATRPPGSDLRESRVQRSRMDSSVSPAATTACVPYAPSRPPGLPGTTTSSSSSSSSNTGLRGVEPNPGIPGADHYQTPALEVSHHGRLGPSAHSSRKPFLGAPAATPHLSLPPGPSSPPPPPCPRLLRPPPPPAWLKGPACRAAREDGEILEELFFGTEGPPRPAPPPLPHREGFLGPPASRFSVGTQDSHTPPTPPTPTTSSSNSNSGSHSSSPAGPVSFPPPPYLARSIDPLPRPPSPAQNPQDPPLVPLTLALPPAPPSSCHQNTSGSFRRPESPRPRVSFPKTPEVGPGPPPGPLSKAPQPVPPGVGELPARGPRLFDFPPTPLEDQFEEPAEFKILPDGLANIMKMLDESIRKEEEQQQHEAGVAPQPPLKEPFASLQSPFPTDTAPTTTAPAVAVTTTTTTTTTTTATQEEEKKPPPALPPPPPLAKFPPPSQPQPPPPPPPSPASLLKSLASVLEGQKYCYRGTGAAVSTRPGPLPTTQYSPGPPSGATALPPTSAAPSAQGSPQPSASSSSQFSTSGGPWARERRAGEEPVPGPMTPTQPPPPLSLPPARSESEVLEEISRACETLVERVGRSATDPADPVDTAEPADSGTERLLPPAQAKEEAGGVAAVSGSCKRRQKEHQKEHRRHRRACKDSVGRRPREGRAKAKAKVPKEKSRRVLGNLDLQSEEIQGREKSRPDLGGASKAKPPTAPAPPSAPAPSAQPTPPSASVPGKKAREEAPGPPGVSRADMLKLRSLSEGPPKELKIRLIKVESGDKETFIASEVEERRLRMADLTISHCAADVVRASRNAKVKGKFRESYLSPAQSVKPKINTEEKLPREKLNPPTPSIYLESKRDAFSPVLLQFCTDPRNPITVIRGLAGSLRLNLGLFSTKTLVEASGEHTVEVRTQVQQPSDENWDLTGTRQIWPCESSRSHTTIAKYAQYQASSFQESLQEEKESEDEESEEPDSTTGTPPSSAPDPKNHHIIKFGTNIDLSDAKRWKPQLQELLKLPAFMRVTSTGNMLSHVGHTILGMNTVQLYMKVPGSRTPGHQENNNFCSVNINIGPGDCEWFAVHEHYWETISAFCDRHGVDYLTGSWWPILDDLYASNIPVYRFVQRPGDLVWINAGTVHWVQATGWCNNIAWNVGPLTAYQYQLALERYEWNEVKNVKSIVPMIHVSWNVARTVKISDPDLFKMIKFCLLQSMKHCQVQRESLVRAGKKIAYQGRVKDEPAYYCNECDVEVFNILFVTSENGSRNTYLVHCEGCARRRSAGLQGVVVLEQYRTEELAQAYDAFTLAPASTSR

Compound | IC50 (JMJD3 (KDM6B); read-out: IC50 JMJD3 (KDM6B)) [µM] | concentrations at which the luciferase signals were reduced ([1]; HT1080 cells, 16 hours) [µM] | EC50 [1, 3] [µM] | time at which HIF-2α level saturated ([2]; 2.5 μM) [h] | time at which HIF-1α level saturated ([2]; 10 μM) | time at which HIF-2α level saturated ([2]; 10 μM) | EC50 ([1]; HT-1080, 6 h, read-out: EC50 HRE luciferase reporter) [µM] | EC50 ([1]; HT-1080, 24 h, read-out: EC50 HRE luciferase reporter) [µM] | concentration from which dose-dependent HIF-1α stabilization was clear ([2]; up to 6 hours) [µM] | EC50 ([1]; HT-1080, 6 h, read-out: EC50 HRE luciferase reporter, HT1080 cells, 6 hours treatment) [µM] | EC50 ([1]; HT-1080, 16 h, read-out: EC50 HRE luciferase reporter, HT1080 cells, 16 hours treatment) [µM] | EC50 ([1]; HT-1080, 24 h, read-out: EC50 HRE luciferase reporter, HT1080 cells, 24 hours treatment) [µM] | EC50 ([1]; HT-1080, HT1080 cells, 16 hours treatment, read-out: EC50 HRE luciferase reporter) [µM] | IC50 (JMJD3 (KDM6B)) [µM] | Emax in HRE luciferase reporter assay ([1]; HT1080 cells, 16 hours)
CC(C)(C)OC(=O)c1ccc(-n2[nH]cc(-n3ccnn3)c2=O)nc1 [IOX4] | < 1 | > 33 | 0.8 | 1 | 3 to 6 h | 3 to 10 h |  |  |  |  |  |  |  |  | 
O=C(O)CNC(=O)c1ncc(-c2cccc(Cl)c2)cc1O [Vadadustat] | 37 |  | 41 |  |  |  | 15.7 | 37 | ≥ 50 |  |  |  |  |  | 
Cc1nc(C(=O)NCC(=O)O)c(O)c2ccc(Oc3ccccc3)cc12 [FG-4592] | > 100 |  |  |  |  |  |  |  |  | 3 | 7 | 7 |  |  | 
O=c1c(-n2ccnn2)c[nH]n1-c1cc(N2CCOCC2)ncn1 [Molidustat] | 35 | > 33 |  | 1 | after the first hour | after the first hour |  |  |  |  |  |  | 2.1 |  | 
O=C(O)CNC(=O)C1C(=O)N(C2CCCCC2)C(=O)N(C2CCCCC2)C1=O [GSK1278863] |  | > 33 | 0.8 |  | 3 h | 3 h |  |  |  |  |  |  |  | > 100 | lowest observed Emax
